Test results from EP0046707B1, “Derivatives of 4-aminobutyric acid and the medicines especially active on the central nervous system containing them” (priority 1980, dated 1982).
Read-outs that look alike come from different tables or passages of the source.

Legend:
[1] = Acute toxicity (mortality over 24 h); conditions: in vivo, po, mouse, observed 24 h
Method: Les produits à étudier sont administrés par voie orale aux doses de 500 et 1 000 mg/kg à des lots de souris. On observe les souris pendant 24 h et note la mortalité.
Les résultats exprimés en pourcentage de mortalité figurent dans le tableau XI ci-après.

souris [2] = assay: Anticonvulsant effect against electroshock seizures; assay type: in vivo; conditions: 1 h; mouse, electroshock 12.5 V for 0.5 s, 60 min after oral dosing; read-out: Dose efficace médiane de protection des crises toniques (DE 50) Electrochoc
Method: (§1) L'effet anticonvulsivant a été déterminé vis-à-vis des crises convulsives provoquées par l'électrochoc ou par la bicuculline.
L'électrochoc (12,5 V pendant 0,5 s) est effectué chez la souris 60 min après l'administration du produit par voie orale.
(§2) En opérant sur divers lots d'animaux avec des doses différentes du produit à étudier, on peut déterminer la dose efficace médiane (DE 50).
(§3) Les résultats sont rassemblés dans le tableau VIII ci-après et montrent les propriétés anticonvulsivan- tes nettes des produits étudiés.

[3] = tested on: acide homovanillique (HVA); assay: Effect on central dopaminergic activity (homovanillic acid accumulation in whole brain); assay type: in vivo, souris; conditions: mouse whole brain, 500 mg/kg p.os
Method: L'effet des produits sur l'activité dopaminergique centrale a été étudié par la mesure de l'accumulation de l'acide homovanillique sur une période de 24 h après l'administration des produits chez la souris.
Le taux d'acide homovanillique (HVA) est évalué dans le cerveau entier, les animaux reçoivent une injection de probenecid (200 mg/kg i.p.) 1 h 30 min avant le sacrifice (lot de 10 animaux).

souris [4] = assay: Potentiation of pentobarbital narcosis (loss of righting reflex); assay type: in vivo; conditions: mouse; for ED50: po, p. os 1 h before pentobarbital 20 mg/kg i.p., unit not given for DE 50, read-out: dose (p. os) provoquant 50 % d'induction de narcose (DE 50); for Pourcentage d'animaux en narcose à 500 mg/kg p. os: 500 mg/kg p. os 1 h before pentobarbital 20 mg/kg i.p.
Method: Les produits à étudier ont été administrés per os chez la souris à la dose de 500 mg/kg, 1 h avant le pentobarbital injecté par voie intrapéritonéale à raison de 20 mg/kg.
On détermine le pourcentage des animaux ayant perdu le réflexe de retournement. Les résultats sont exprimés en pourcentage ou, dans quelques cas, en dose efficace 50 (DE 50) ou dose provoquant la narcose chez 50 % des animaux traités.
Les résultats figurent dans le tableau VI ci-après.

souris [5] = assay: Anticonvulsant effect against bicuculline-induced tonic seizures; assay type: in vivo; conditions: 1 h; mouse, bicuculline 1 mg/kg i.v. 60 min after oral dosing; read-out: Dose efficace médiane de protection des crises toniques (DE 50) Bicuculline
Method: as §1
La bicuculline est administrée à la souris par voie intraveineuse à raison de 1 mg/kg, 60 min après le produit à étudier donné per os. On note l'effet protecteur obtenu vis-à-vis des crises toniques.
as §2, §3

souris [6] = assay: Actography (locomotor activity, two perpendicular light beams); assay type: in vivo; conditions: mouse, 500 mg/kg oral; grouping in words
Method: La mesure de l'actographie est effectuée chez la souris 45 min. après l'administration du produit. On opère sur des lots de 12 animaux, chacun d'eux étant isolé pendant 10 min. avant la mesure. Le comptage des scores est effectué par coupure de deux faisceaux lumineux perpendiculaires.
Dans le tableau IV ci-après sont rassemblés les résultats obtenus avec divers produits de l'invention administrés à la dose de 500 mg/kg par voie orale. Les résultats sont exprimés en pourcentage de variation des scores obtenus par rapport à des animaux témoins non traités.
On peut constater que les produits se répartissent en deux groupes : • ceux provoquant de l'hypomotilité tels que 40217, 40039, 40271, 40272, 40319; dans le cas où les animaux traités présentent une perte du réflexe de retournement, ce qui traduit l'effet de narcose propre du produit, on a noté PRR; • ceux provoquant de l'hypermotilité, tels que 40142, 40398, 40397, 40404, 40253, 40355, 40209; pour préciser les résultats obtenus, l'étude pour deux produits a été reprise en effet-dose suivant le même protocole. • Les résultats obtenus figurent dans le tableau V ci-après.

[7] = 500 mg/kg p. os, read-out: p. cent de mortalité à 500 mg/kg p. os
[8] = 1000 mg/kg p. os, read-out: p. cent de mortalité à 1000 mg/kg p. os

| SMILES | mortality at 24 h [1, 7] | mortality at 24 h [1, 8] | ED50 (souris [5]) | hypomotilité / hypermotilité (souris [6]) | Pourcentage d'animaux en narcose à 500 mg/kg p. os (souris [4]) | also measured |
| --- | --- | --- | --- | --- | --- | --- |
| CCCCNC(=O)CCCNC(=O)CCC [40 142] | 0% | 0% | 325 mg/kg | hypermotilité | – | ED50 (souris [2]): 150 mg/kg; Taux de HVA en ([3]; 2 h): 379 ± 11 ng/g; Taux de HVA en ([3]; 4 h): 793 ± 52 ng/g; Taux de HVA en ([3]; 6 h): 571 ± 23 ng/g; Taux de HVA en ([3]; 24 h): 290 ± 16 ng/g; Taux de HVA en ([3]; time 0 (baseline)): 521 ± 29 ng/g; ED50 (souris [4]): 297 mg/kg |
| CCCC(=O)NCCCC(=O)N1CCOCC1 [40 206] | 0% | 0% | – | – | 0% | – |
| CCCC(=O)NCCCC(=O)NC1CCCC1 [40 209] | 0% | 20% | – | hypermotilité | – | – |
| CCCC(=O)NCCCC(=O)N(C(C)CC)C(C)CC (stereo not drawn) [40 216] | 0% | 100% | – | – | 100% | – |
| CCCC(=O)NCCCC(=O)N(CCC)CCC [40 217] | 0% | 0% | – | hypomotilité | 0% | – |
| CCCCNC(=O)CCNC(=O)CCC [40 253] | 0% | 0% | < 500 mg/kg | hypermotilité | 50% | ED50 (souris [2]): 500 mg/kg |
| CCCCNC(=O)CCCNC(=O)C(C)(C)C [40 254] | 0% | 20% | < 500 mg/kg | – | 50% | – |
| CCCCN(CCCC)C(=O)CCNC(=O)CCC [40 271] | 0% | 100% | < 500 mg/kg | hypomotilité | 100% | ED50 (souris [2]): 500 mg/kg |
| CCCCN(CCCC)C(=O)CCCNC(=O)C(C)(C)C [40 272] | 0% | 0% | – | hypomotilité | 72% | – |
| CCCC(=O)NCCCC(=O)NCc1ccccc1 [40 316] | 0% | 0% | – | – | 70% | – |
| CCCCNC(=O)CCNC(=O)C(C)(C)C [40 318] | – | – | – | – | 90% | – |
| CCCCN(CCCC)C(=O)CCNC(=O)C(C)(C)C [40 319] | 0% | 0% | – | hypomotilité | – | ED50 (souris [4]): 175 mg/kg |
| CCCCNC(=O)CC(C)NC(=O)CCC (stereo not drawn) [40 395] | 0% | 20% | – | – | 70% | – |
| CCCCNC(=O)CCC(C)NC(=O)CCC (stereo not drawn) [40 397] | 0% | 20% | – | hypermotilité | 100% | – |
| CCCNC(=O)CCCNC(=O)CCC [40 398] | 0% | 0% | – | hypermotilité | – | ED50 (souris [4]): 350 mg/kg |
| CCCC(=O)NCCCC(N)=O [40 401, Dioxo-2,7 diaza-1,6 décane] | 0% | 0% | – | – | 0% | – |
| CCCCNC(=O)C(C)CCNC(=O)CCC (stereo not drawn) [40 404] | 0% | 0% | – | hypermotilité | 40% | – |
| CCCCNC(=O)CCCNC(=O)CC(C)C [40 417] | 0% | 20% | – | – | – | – |
| CCCNC(=O)CCCNC(=O)CC(C)C [40 418] | 0% | 0% | 300 mg/kg | – | – | – |
| CCCCNC(=O)CCCNC(=O)C1CC1 [40 443] | 0% | 0% | – | – | 40% | – |
| CCCCN(CCCC)C(=O)CCCNC(=O)C(C)C [40 462] | 0% | 0% | 150 mg/kg | – | 30% | ED50 (souris [2]): 500 mg/kg |
| CCCC(=O)NCCCC(=O)NCC [40 463] | 0% | 0% | 380 mg/kg | – | – | – |
| CCCC(=O)NCCCC(=O)NC(C)C [40 466] | 0% | 0% | – | – | 30% | – |
| CCCCNC(=O)CCCNC(=O)C(C)C [40 467] | 0% | 0% | 150 mg/kg | – | – | ED50 (souris [2]): < 500 mg/kg |
| CCCCCNC(=O)CCCNC(=O)CCC [40 521] | – | – | 250 mg/kg | – | – | ED50 (souris [2]): 180 mg/kg |
| CCCCCCNC(=O)CCCNC(=O)CCC [40 947] | 0% | 0% | 250 mg/kg | – | – | ED50 (souris [2]): 400 mg/kg |
| CCCCCN(CCCCC)C(=O)CCCNC(=O)CCC [40 984] | 0% | 100% | – | – | 60% | – |
| CCCC(=O)NCCCC(=O)NC(C)(C)CC [40 989] | 0% | 80% | – | – | 50% | – |
